Test results reported in patent US8138304B2, “Neural regeneration peptides and formulations thereof” (Neuren Pharmaceuticals Limited, priority 2005, dated 2012).
Where no end group is shown, it is not given here.

How the values were obtained:
[1] = system: primary human trophoblasts; experiment: Trophoblast proliferation assay (BrdU incorporation); type: cell-based
Experimental: Cell proliferation was determined by BrdU incorporation to examine the effects of NRP-5RG D6A on the proliferation of trophoblasts. EGF (0.8×10^−9 M) was used as a positive control, since studies have previously shown it plays a role in enhancing trophoblast proliferation (Maruo et al., 1992).
Initially cells were treated with NRP-5RG D6A (SEQ ID NO: 1), EGF and BrdU (0.05 μM) for 72 hrs. After the first 24 hrs, an 80% media change was carried out since BrdU is toxic over long incubation periods. Following 72 hrs of incubation, the reaction was stopped by fixation in 4% PFA. However, with this experimental design, most trophoblasts would form syncytia by the end of the 72 hrs, hindering accurate examination of the proliferative effect of NRP-5RG D6A on trophoblasts. […] This allowed analysis of proliferation of mononuclear trophoblasts.
Cell proliferation was evaluated over 24 hrs after seeding 1.3×10^5 cells/cm^2 in culture media (1% serum) treated with 0.05 μM BrdU, NRP-5RG D6A and EGF (FIG. 13).

[2] = system: human primary trophoblasts; experiment: Trophoblast haptotactic migration (Boyden chamber) assay; type: cell-based; settings: 0.1 ng/ml coating, 100 fM in inserts; 22 hrs
Experimental: Human trophoblast cells were isolated from term placentas with prior approval by the Ethics Committee of the University of Auckland and consent of the patients. The maternal decidua was removed, exposing the villous interior of the placenta. Pieces of villous tissue were cut out and washed thoroughly with PBS before digestion using 0.25% trypsin. The digest was then diluted in Locke Ringers Buffer and DNAase I. Digestion of connective tissue surrounding the placental cells was carried out while stirring the mixture with a magnetic stirrer at a temperature of 37° C. The process was repeated 8 times, with the last 6 supernatants being collected in a bottle containing fetal bovine serum (FBS). The digestion step produced a heterogeneous dispersed cell preparation. The pooled supernates was centrifuged for 7 minutes at 1200 rpm. The cell pellet was resuspended in PBS and centrifuged. […]
Cells were then purified using a percoll gradient (5, 20, 30, 35, 40, 50 and 60%). […] This band was collected, the cells washed in M199 medium centrifuged and finally counted and plated according to the methods of Keelan et al, 1998. […]
Under control conditions, the bottom of the chamber is not pre-coated with a putative chemoattractive agent. […] Thus, the number of migratory cells can be quantified. […]

JAr cells = experiment: TNF-alpha-induced cytotoxicity in immortalized trophoblast cell line; type: cell-based, human
Experimental: Choriocarcinoma cells (Jeg-3, BeWo and Jar; ATCC) were cultured under similar conditions in DMEM/F-12 cell culture medium in 75 cm2 flasks with filter tops (Raylab). Cells were allowed to adhere and grow in an incubator equilibrated in 95%/5% air/CO2 to approximately 70% confluence, before being split every 2 to 3 days by addition of 2 ml of 1× concentrated trypsin-EDTA. After a centrifugation step for 5 min at 1100 rpm, cells were resuspended in 15 ml of fresh DMEM/F-12 in sterile tissue flasks and placed back in the incubator.
In this study, we plated 50,000 JAr cells per well. JAr cells are an immortalized line of cells derived from a human choriocarcinoma cells. Wells were pre-incubated with NRP-5RG D6A (SEQ ID NO: 1) at the concentrations indicated in FIG. 12, or epidermal growth factor (EGF; 5 ng/ml) for 2 hours. Subsequently, cells were exposed to the cultures for 48 hours to TNF-alpha (5 ng/ml) and interferon-gamma (5 ng/ml) to induce stress.

[3] = system: mouse neural stem cells (MEB-5 cells); experiment: Haptotactic migration assay, physiological (injury-free) conditions; type: cell-based; settings: 0.1 ng/ml NRP coating
Experimental: An NRP was tested for migration-inducing/chemoattractive activity on mouse neural stem cells in a haptotactic migration assay as described below.
Control wells of Transwell plates (Corning) with 12 μm pore size were coated in 1.5 ml of the BSA/PBS vehicle. Remaining plates were coated using 0.1 ng/ml of NRP (SEQ ID NO: 1) (prepared in PBS containing 10 ug/ml BSA).
Laminin (7 μg/ml) was used as extracellular matrix (ECM) coating for mouse primary stem cells. The matrix was incubated at 37° C.; 5% C02 for 2 hrs at room temperature. The cells were seeded onto the inserts (30,000 cells per well). Plates were fixed at 1-2 days in vitro (DIV).
A 5 ug/mL PDL/PLL mixture (in PBS) was used to coat inserts. Subsequently the inserts were rinsed with MilliQ water.
Inserts were discarded and wells fixed in successive dilutions of PFA (0.4, 1.2, 3 and 4%) for 3-5 min in each dilution. […] The wells were rinsed and stored in PBS until counting.

## REGRRAAPGRAGG-NH2 (listed as Homo sapiens) [SEQ ID NO: 1, 13-mer NRP analogue]
[1]; 10^−13 M, 24 hrs, BrdU
  trophoblast proliferation compared to the control: no increase in proliferation
[1]; 10^−14 M, 24 hrs, BrdU
  increase in trophoblast proliferation: 183.3±50.2%
[1]; any concentration other than 10^−14 M (higher concentrations, data not shown)
  trophoblast proliferation at other concentrations: no proliferative effect
[2]
  increase of migratory cells: 95%
JAr cells; 1 nM
  rescue effect at further increased concentration: reduced rescue effect
JAr cells; 2 hours pre-incubation, TNF-alpha 5 ng/ml and interferon-gamma 5 ng/ml, 48 hours
  concentration at which a significant rescue effect was observed: 10 fM
[3]
  more cells migrating in comparison with BSA-vehicle: 55.4%
